Experimental data as given in PubChem BioAssay AID1508603 (National Center for Advancing Translational Sciences (NCATS), 2020).

System: human liver cytosol stability, half-life
Assay: NCATS Human Liver Cytosol Stability Profiling
Settings: higher = more stable
Procedure: Assay submitter (PI): Pranav Shah Ph.D.
NIH Center for Advancing Translational Sciences
Over the last few decades, chemists have become skilled at designing compounds that avoid cytochrome P (CYP) 450 mediated metabolism. Typical screening assays are performed in liver microsomal fractions and it is possible to overlook the contribution of cytosolic enzymes until much later in the drug discovery process. Few data exist on cytosolic enzyme-mediated metabolism and no reliable tools are available to chemists to help design away from such liabilities. In this study, we screened 1450 compounds for liver cytosol-mediated metabolic stability and extracted transformation rules that might help medicinal chemists in optimizing compounds with these liabilities. […] Matched molecular pairs analysis was performed in conjunction with qualitative-structure activity relationship modeling to identify chemical structure transformations affecting cytosolic stability. The transformation rules were prospectively validated on the test set. In addition, selected rules were validated on a diverse chemical library and the resulting pairs were experimentally tested to confirm whether the identified transformations could be generalized. The validation results, comprising nearly 250 library compounds and corresponding half-life data, are made publicly available. The datasets were also used to generate in silico classification models, based on different molecular descriptors and machine learning methods, to predict cytosol-mediated liabilities. To the best of our knowledge, this is the first systematic in silico effort to address cytosolic enzyme-mediated liabilities (Shah 2020).
Shah, P., Siramshetty, V.B., Zakharov, A.V. et al. Predicting liver cytosol stability of small molecules. J Cheminform 12, 21 (2020). https://doi.org/10.1186/s13321-020-00426-7
Compounds are classified as unstable (t 1/2 < 30 min) or stable (t 1/2 > 30 min).
1. Shah, P. et al. An Automated High-Throughput Metabolic Stability Assay Using an Integrated High-Resolution Accurate Mass Method and Automated Data Analysis Software. Drug Metab Dispos 44, 1653-1661 (2016). PMID 27417180

SMILES | half-life [h]
Cc1ccccc1-c1[nH]nc2ncc(-c3cccc(F)c3)nc12 | 0.817
Cc1ccc(NC(=O)c2nc3sccn3c2-c2cccc(C#N)c2)cc1 | 0.29
CC1(c2ccccc2)N(Cc2ccccc2)C(=O)OC12CCN(Cc1cccc(C#N)c1)CC2 (stereo unspecified) | > 2
O=C(c1cccnc1)N1CCC(Oc2cccc(F)c2)C1 (stereo unspecified) | > 2
CN1CCN(C(=O)c2ccc3nccn3c2)CC1 | > 2
N#Cc1ccc(CN2CCC3(COc4ccccc4C(=O)N3)C2)cc1 (stereo unspecified) | 0.64
O=C(O)c1ccc(-c2ncc3cnc(-c4cccc(F)c4)cn23)cc1 | > 2
N#Cc1ccc(CN2C[C@@H](CO)[C@H](c3ccncc3)C2)cc1 | 1.78
O=C(c1ccc(-c2ncc3cnc(-c4cccc(F)c4)cn23)cc1)N1CCc2cccnc21 | 0.288
N#Cc1ccnc(-c2nnc3ccc(NCc4cnccn4)nn23)c1 | > 2
CNC(=O)[C@@H]1CN(C(=O)c2cccc(C#N)c2)C[C@H]1COC | 1.44
COc1cccc(CN2CCOC[C@H](O)C2)c1 | 0.47
Cc1cc2cc(-c3c(C)noc3C)nc(Nc3ccccc3)c2o1 | 0.593
CN(CC1CCOC1)C(=O)Nc1cccc(F)c1 (stereo unspecified) | > 2
COc1ccc(CN2CCC3(C2)NC(=O)c2ccccc2O3)cc1 (stereo unspecified) | > 2
COc1cccc(-c2c(C(=O)Nc3ccc(C)cc3)nc3sccn23)c1 | 1.55
COCCOC1CCN(C(=O)Nc2cccc(F)c2)CC1 | > 2
Cc1ccccc1-c1[nH]nc2ncc(-c3ccccc3C#N)nc12 | > 2
CCN1CCN(C(=O)c2cc(-c3ccccc3OC)c3nncn3n2)CC1 | > 2
COc1ccc(CN2CCC(N3Cc4cccn4C3=O)CC2)cc1 | > 2
Cc1cc(OC2CN(Cc3ccc(C#N)cc3)C2)ccc1F | 0.73
CCN1CCN(C(=O)Cc2cccn2-c2ccc(F)cc2)CC1 | > 2

SMILES | half-life [h]
CN1CCN(C(=O)c2cc(-c3cccnc3)nc3c2cnn3C)CC1 | > 2
COc1cccc(CN2CCC3(CC2)OCCN(C)C3=O)c1 | > 2
Cc1ccc(-c2noc([C@@H]3Cc4nc[nH]c4CN3Cc3cccc(C#N)c3)n2)cc1 | 1.06
N#Cc1cccc(CN2CCOC[C@H](O)C2)c1 | 0.852
N#Cc1ccc(CN2CCC3(CC2)CC(=O)c2ccccc2O3)cc1 | > 2
Cc1nnc([C@H]2CCN(Cc3ccc(C#N)cc3)C2)o1 | > 2
COc1ccc(-c2[nH]nc3ncc(-c4cccc(F)c4)nc23)c(C)c1 | 1.26
COc1cccc(CN2CC[C@H](c3nc4ccccc4[nH]3)C2)c1 | > 2
COCCNC(=O)c1nc2sccn2c1-c1cccc(C#N)c1 | > 2
O=C(c1ccoc1)N1CCC(Oc2cccc(F)c2)C1 (stereo unspecified) | 1.18
COc1cccc(-c2c(C(=O)N3CCOCC3)nc3sccn23)c1 | > 2
CN(Cc1cccc(F)c1)C1CCOc2ccccc21 (stereo unspecified) | 0.143
CN(Cc1ccccc1)C1CCOc2ccccc21 (stereo unspecified) | 0.127
Cc1noc(-c2cn(C3CCN(C(=O)c4cccc(F)c4)C3)nn2)n1 (stereo unspecified) | > 2
COc1cccc(-c2c(C(=O)N3CCCCC3)nc3sccn23)c1 | 1.9
N#Cc1ccc(CN2CCC3(C2)NC(=O)c2ccccc2O3)cc1 (stereo unspecified) | > 2
Cc1nn2c(c1-c1ccccc1Oc1ccccc1)N(Cc1ccc(C(=O)O)cc1)CCC2 | > 2
CCOCCOC1CCN(C(=O)Nc2ccccc2)CC1 | > 2
CCN1CCN(C(=O)c2nc3sccn3c2-c2cccc(OC)c2)CC1 | > 2
N#Cc1ccc(CN2CCC(N3Cc4cccn4C3=O)CC2)cc1 | > 2
COc1cccc(-c2c(C(=O)NC3CC3)nc3sccn23)c1 | > 2
Fc1cccc(-c2cnc([C@@H]3COCCN3Cc3cnc[nH]3)[nH]2)c1 | 0.988

SMILES | half-life [h]
COc1ccc(CN2CC(N3CCc4ccccc43)C2)cc1 | 1.37
O=c1c2nc(Nc3cccc(F)c3)ccc2ncn1-c1ccccc1 | 1.57
CC(C)(C)c1coc([C@@H]2COCCN2Cc2cccc(C#N)c2)n1 | 0.943
CN(C)[C@@H]1CN(C(=O)c2ccc(C#N)cc2)C[C@H]1CO | > 2
CCN1CCN(C(=O)C2Cn3cccc3C(=O)N2CC(C)C)CC1 (stereo unspecified) | > 2
COc1ccc(CN2CC(Oc3ccc(OC)cc3)C2)cc1 | > 2
N#Cc1cccc(CN2CC[C@H](c3nc4ccccc4[nH]3)C2)c1 | > 2
O=C(c1ccncc1)N1CCC(Oc2cccc(F)c2)C1 (stereo unspecified) | > 2
CCN1CCN(C(=O)c2nc3sccn3c2-c2cccc(C#N)c2)CC1 | > 2
O=C(N1CCN(S(=O)(=O)c2cccc(F)c2)CC1)N1CC2CC(C1)[C@H]1CCCC(=O)N1C2 (stereo partly specified) | > 2
CCN1CCN(C(=O)c2cc(-c3ccc(F)cc3)nc3c2cnn3C)CC1 | > 2
COc1ccc(C(=O)N2C[C@@H](CO)[C@H](N(C)C)C2)cc1 | > 2
CN1CCC(OC2CCN(C(=O)c3cccc(F)c3)CC2)CC1 | > 2
COc1ccc(C(=O)N2CCC3(CCC3OC)CC2)cc1 (stereo unspecified) | 1.17
N#Cc1ccc(CN2CCC(N3CCOC3=O)CC2)cc1 | > 2
Cc1cc2cc(-c3c(C)noc3C)nc(Nc3cccc(F)c3)c2o1 | 0.137
Cc1cc(F)ccc1OC1CN(Cc2ccc(C#N)cc2)C1 | 0.59
COc1ccc(OC2CN(Cc3ccc(C#N)cc3)C2)cc1 | > 2
COCCNc1nc(N)nc2c1CCN(C(=O)c1cscn1)CC2 | > 2
Cn1cnc2ccc(Nc3cccc(F)c3)nc2c1=O | 1.92
O=C(c1ccoc1)N1CCC(Oc2ccccc2)C1 (stereo unspecified) | > 2
N#Cc1ccc(CN2CC(Oc3ccc(F)cc3F)C2)cc1 | 1.05

SMILES | half-life [h]
COc1ccc(CN2CC(Oc3ccc(F)c(F)c3)C2)cc1 | 0.5
O=C(NCCc1cnc[nH]1)c1ccc(-c2ncc3cnc(-c4cccc(F)c4)cn23)cc1 | 0.248
CN1CCC(OC2CCN(C(=O)c3ccccc3)CC2)CC1 | > 2
O=C(O)c1ccc(-c2ccc(N3CCCCCC3)nc2)cc1 | > 2
COc1ccc(CN2CCC3(COc4ccccc4C(=O)N3)C2)cc1 (stereo unspecified) | 0.578
COc1ccc(CN2CCC(N3CCOC3=O)CC2)cc1 | > 2
COc1ccc(CN2CC[C@@](C)(O)[C@H](N3CCCC3)C2)cc1 | > 2
Cc1noc(C)c1-c1cc(-c2cccc(F)c2)cn2cncc12 | 1.5
COc1cccc(-c2cn3c(n2)N(C(=O)c2ccco2)CCC3)c1 | 0.993
COC1CCC12CCN(C(=O)c1ccc(C#N)cc1)CC2 (stereo unspecified) | 1.32
Cc1nn2c(c1-c1ccccc1Oc1ccccc1)N(Cc1cccc(C#N)c1)CCC2 | > 2
COc1ccc(CN2CCC(N3CCNC3=O)CC2)cc1 | > 2
Cn1ccc(NC(=O)c2ccc(-c3ncc4cnc(-c5cccc(F)c5)cn34)cc2)n1 | 0.553
CC(C)(C)c1coc([C@@H]2COCCN2Cc2ccc(C(=O)O)cc2)n1 | 1.88
COCCOC1CCN(C(=O)Nc2ccccc2)CC1 | > 2
O=c1cc(N2CCOCC2)oc2c(-c3cccc(F)c3)nccc12 | > 2
N#Cc1ccccc1CN1CCC2(CC1)CC(O)CCO2 (stereo unspecified) | 1.34
N#Cc1ccc(CN2CC(N3CCc4ccccc43)C2)cc1 | 1.61
N#Cc1cncc(N2CC3CCC(C2)N3CC(F)(F)F)c1 | > 2
N#Cc1cccc(CN2CC(COc3ccccc3)C3(C2)CN(c2ccccc2)C3)c1 (stereo unspecified) | 0.693
COc1ccc(CN2CCC3(CC2)CC(=O)c2ccccc2O3)cc1 | > 2
O=C(Nc1ncc(-c2cccc(F)c2)c2c1OCC2)c1ccncc1 | > 2

SMILES | half-life [h]
O=c1c2nc(Nc3cccc(F)c3)ccc2ncn1-c1cccnc1 | 1.61
O=C(c1cccs1)N1CCC(Oc2ccccc2)C1 (stereo unspecified) | 0.638
Cc1noc(-c2cn(C3CCN(C(=O)c4ccccc4)C3)nn2)n1 (stereo unspecified) | > 2
Fc1cccc(Nc2ncc(-c3cccnc3)c3c2OCC3)c1 | 1.28
CNC(=O)[C@@H]1CN(C(=O)c2cccc(OC)c2)C[C@H]1COC | > 2
CN(CC1CCOC1)C(=O)Nc1ccccc1 (stereo unspecified) | > 2
COc1cccc(-c2cn3c(n2)N(C(=O)c2cccs2)CCC3)c1 | > 2
N#Cc1ccc(CN2CCC(N3CCNC3=O)CC2)cc1 | 1.55
COc1ccc(C(=O)N2CCCOCCNC(=O)CC2)cc1 | 1.17
Fc1cccc(-c2cnc(Nc3cncnc3)c3c2CCO3)c1 | 0.16
O=C(c1cccc(F)c1)N1CCC(Oc2cccnc2)C1 (stereo unspecified) | > 2
N#Cc1cccc(-c2cn3c(n2)N(C(=O)c2ccco2)CCC3)c1 | 0.612
O=C(O)c1ccc(CN2CCOC[C@H]2c2ncc(-c3ccc(F)cc3)[nH]2)cc1 | > 2
CCOCCOC1CCN(C(=O)Nc2cccc(F)c2)CC1 | > 2
O=C(c1cccs1)N1CCC(Oc2cccc(F)c2)C1 (stereo unspecified) | 0.29
O=C(Nc1cnc(-c2ccccc2)nc1)c1cccc(F)c1 | 0.867
COc1ccc(CN2CC(Oc3ccc(F)cc3C)C2)cc1 | 0.35
Fc1cccc(-c2cnc(Nc3cccnc3)c3c2CCO3)c1 | > 2
